ChEMBL document CHEMBL4311976, “Design, synthesis and biological evaluation of novel 7H-pyrrolo[2,3-d]pyrimidine derivatives as potential FAK inhibitors and anticancer agents” (Eur J Med Chem, 2019)

Legend:
MDA-MB-231 = test: cells; conditions: Homo sapiens, MDA-MB-231, 72 h
Description: Antiproliferative activity against human MDA-MB-231 cells assessed as reduction in cell viability after 72 hrs by MTT assay

A549 [1] = test: Induction of apoptosis in human A549 cells assessed as necrotic cells at 3 uM after 72 hrs by Annexin V-FITC/propidium iodide staining-based flow cytometric analysis (reference value: 1.70%); type: functional
CYP1A2 = CYP1A2 (Homo sapiens, UniProt P05177); test: Inhibition of CYP1A2 in human pooled liver microsomes at 10 uM using phenacetin as substrate preincubated for 10 mins followed by NADPH addition and measured after 15 mins by LC/MS/MS analysis relative to control; type: ADME; conditions: probe phenacetin
[2] = target: Receptor tyrosine-protein kinase erbB-2 (Homo sapiens) (UniProt P04626); test: Inhibition of recombinant His-tagged human HER2 (676 to 1255 residues) expressed in baculovirus expression system at 0.5 uM using tyr 06 as substrate in presence of ATP at Km concentration after 1 hr by Z'-LYTE assay relative to control
Chain of Receptor tyrosine-protein kinase erbB-2 (Homo sapiens) (P04626 whole entry, the tested form may be a part): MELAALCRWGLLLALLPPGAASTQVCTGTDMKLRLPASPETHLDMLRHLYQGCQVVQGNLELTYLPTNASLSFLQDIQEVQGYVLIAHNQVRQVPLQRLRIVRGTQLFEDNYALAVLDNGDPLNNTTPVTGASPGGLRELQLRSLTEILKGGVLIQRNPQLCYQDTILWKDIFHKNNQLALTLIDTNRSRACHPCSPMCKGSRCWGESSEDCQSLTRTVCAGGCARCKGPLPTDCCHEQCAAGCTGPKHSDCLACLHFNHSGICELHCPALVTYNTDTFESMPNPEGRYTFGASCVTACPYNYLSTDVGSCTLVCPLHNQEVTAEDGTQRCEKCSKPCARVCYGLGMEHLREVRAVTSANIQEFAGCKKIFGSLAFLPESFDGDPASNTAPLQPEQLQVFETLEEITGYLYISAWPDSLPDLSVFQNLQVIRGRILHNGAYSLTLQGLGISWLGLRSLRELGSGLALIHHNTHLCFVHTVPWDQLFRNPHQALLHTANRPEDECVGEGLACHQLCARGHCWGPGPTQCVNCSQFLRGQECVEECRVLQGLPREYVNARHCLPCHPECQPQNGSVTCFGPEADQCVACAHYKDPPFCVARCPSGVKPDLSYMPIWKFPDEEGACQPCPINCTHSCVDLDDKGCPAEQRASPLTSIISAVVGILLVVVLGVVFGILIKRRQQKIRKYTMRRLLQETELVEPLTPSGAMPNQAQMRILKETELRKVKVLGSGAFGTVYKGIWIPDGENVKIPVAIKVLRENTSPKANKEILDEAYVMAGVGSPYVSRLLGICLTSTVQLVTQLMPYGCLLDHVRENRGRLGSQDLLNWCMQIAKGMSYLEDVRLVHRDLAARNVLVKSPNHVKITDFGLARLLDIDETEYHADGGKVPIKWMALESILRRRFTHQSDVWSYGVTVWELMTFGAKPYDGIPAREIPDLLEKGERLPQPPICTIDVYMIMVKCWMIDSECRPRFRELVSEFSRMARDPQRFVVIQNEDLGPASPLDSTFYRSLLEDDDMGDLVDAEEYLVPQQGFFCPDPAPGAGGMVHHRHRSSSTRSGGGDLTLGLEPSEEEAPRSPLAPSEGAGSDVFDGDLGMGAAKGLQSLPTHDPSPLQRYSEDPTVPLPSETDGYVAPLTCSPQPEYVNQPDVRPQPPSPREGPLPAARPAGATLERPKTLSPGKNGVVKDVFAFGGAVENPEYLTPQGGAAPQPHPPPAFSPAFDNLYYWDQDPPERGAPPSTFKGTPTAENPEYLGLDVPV

[3] = target: Tyrosine-protein kinase ABL1 (Homo sapiens) (UniProt P00519); test: Inhibition of full-length His-tagged human ABL1 expressed in baculovirus expression system at 0.5 uM using tyr 02 as substrate in presence of ATP at Km concentration after 1 hr by Z'-LYTE assay relative to control
Chain of Tyrosine-protein kinase ABL1 (Homo sapiens) (P00519 whole entry): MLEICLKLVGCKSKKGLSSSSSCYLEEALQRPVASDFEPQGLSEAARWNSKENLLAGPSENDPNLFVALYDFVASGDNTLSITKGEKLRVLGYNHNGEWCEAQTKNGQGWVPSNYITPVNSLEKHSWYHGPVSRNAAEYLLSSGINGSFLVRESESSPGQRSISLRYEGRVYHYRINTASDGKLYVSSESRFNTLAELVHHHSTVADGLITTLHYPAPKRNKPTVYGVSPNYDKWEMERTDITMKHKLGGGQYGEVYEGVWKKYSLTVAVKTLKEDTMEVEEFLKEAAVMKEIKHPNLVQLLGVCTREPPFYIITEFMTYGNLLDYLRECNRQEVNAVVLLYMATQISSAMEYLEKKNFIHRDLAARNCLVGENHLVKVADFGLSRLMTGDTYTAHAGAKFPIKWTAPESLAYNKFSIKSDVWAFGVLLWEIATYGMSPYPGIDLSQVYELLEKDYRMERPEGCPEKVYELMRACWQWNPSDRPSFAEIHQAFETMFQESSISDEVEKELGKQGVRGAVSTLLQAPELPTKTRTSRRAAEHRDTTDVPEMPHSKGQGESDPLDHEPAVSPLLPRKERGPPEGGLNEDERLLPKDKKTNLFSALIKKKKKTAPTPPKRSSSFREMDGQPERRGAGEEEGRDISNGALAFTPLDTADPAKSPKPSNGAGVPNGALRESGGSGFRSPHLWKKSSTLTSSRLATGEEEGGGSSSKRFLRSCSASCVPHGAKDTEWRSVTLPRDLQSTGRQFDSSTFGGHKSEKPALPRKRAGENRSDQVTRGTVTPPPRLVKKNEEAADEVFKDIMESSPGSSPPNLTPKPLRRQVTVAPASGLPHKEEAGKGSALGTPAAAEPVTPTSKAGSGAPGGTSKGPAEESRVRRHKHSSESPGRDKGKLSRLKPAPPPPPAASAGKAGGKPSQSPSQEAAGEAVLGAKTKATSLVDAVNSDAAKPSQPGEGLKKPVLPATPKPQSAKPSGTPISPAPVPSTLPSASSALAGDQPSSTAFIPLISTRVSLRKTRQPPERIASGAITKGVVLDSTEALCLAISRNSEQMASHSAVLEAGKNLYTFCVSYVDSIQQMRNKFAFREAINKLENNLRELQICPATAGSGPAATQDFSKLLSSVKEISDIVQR

[4] = target: Serine/threonine-protein kinase TBK1 (Homo sapiens) (UniProt Q9UHD2); test: Inhibition of recombinant full length GST-tagged human TBK1 expressed in insect cells at 0.5 uM using Ser/Thr 05 as substrate in presence of ATP at Km concentration after 1 hr by Z'-LYTE assay relative to control
Chain of Serine/threonine-protein kinase TBK1 (Homo sapiens) (Q9UHD2 whole entry): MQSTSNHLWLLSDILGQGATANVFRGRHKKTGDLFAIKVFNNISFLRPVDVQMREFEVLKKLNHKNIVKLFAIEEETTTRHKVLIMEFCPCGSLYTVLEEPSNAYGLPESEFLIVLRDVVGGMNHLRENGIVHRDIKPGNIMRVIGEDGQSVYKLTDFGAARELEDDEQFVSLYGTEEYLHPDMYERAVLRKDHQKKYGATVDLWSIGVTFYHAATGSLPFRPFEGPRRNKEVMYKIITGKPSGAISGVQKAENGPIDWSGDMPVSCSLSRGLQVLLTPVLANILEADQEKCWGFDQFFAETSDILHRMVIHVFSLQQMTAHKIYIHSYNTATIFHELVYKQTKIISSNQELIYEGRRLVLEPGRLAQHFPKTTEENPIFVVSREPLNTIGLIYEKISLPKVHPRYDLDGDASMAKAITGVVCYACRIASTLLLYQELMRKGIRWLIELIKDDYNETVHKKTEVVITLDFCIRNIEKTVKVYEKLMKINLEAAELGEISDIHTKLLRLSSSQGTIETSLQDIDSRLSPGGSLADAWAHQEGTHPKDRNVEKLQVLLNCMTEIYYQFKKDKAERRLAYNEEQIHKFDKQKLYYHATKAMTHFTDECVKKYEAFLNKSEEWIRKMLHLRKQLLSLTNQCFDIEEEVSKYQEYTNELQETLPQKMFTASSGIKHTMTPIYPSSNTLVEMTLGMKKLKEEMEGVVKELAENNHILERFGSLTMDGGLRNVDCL

[5] = target: Fibroblast growth factor receptor 1 (Homo sapiens) (UniProt P11362); test: Inhibition of recombinant His-tagged human FGFR1 (308 to 731 resides) expressed in baculovirus expression system at 0.5 uM using tyr 04 as substrate in presence of ATP at Km concentration after 1 hr by Z'-LYTE assay relative to control
[6] = Intrinsic clearance in human liver at 1 uM measured up to 1 hr in presence of NADPH by LC-MS/MS analysis; type: ADME, tissue-based
[7] = Intrinsic clearance in mouse liver microsomes at 1 uM measured up to 1 hr in presence of NADPH by LC-MS/MS analysis; type: ADME, Microsome; conditions: read-out: CLH
[8] = Metabolic stability in rat liver microsomes assessed as compound remaining at 1 uM measured up to 1 hr in presence of NADPH by LC-MS/MS analysis; type: ADME, Microsome; conditions: read-out: Stability
A549 [9] = test: Induction of apoptosis in human A549 cells assessed as viable cells at 9 uM after 72 hrs by Annexin V-FITC/propidium iodide staining-based flow cytometric analysis (reference value: 94.66%); type: functional; conditions: A549, 72 h, read-out: Activity
[10] = target: Serine/threonine-protein kinase mTOR (Homo sapiens) (UniProt P42345); test: Inhibition of recombinant GST-tagged human mTOR catalytic domain (1360 to 2549 residues) expressed in baculovirus expression system at 0.5 uM using Ser/Thr 11 as substrate in presence of ATP at Km concentration after 1 hr by Z'-LYTE assay relative to control
[11] = target: ALK tyrosine kinase receptor (Homo sapiens) (UniProt Q9UM73); test: Inhibition of recombinant human GST-tagged ALK (1058 to 1620 residues) expressed in baculovirus at 0.5 uM using tyr 01 as substrate as substrate in presence of ATP at Km concentration after 1 hr by Z'-LYTE assay relative to control
[12] = target: Vascular endothelial growth factor receptor 2 (Homo sapiens) (UniProt P35968); test: Inhibition of recombinant His-tagged human KDR cytoplasmic domain (789 to 1356 residues) expressed in baculovirus expression system at 0.5 uM using tyr 01 as substrate in presence of ATP at Km concentration after 1 hr by Z'-LYTE assay relative to control
Chain of Vascular endothelial growth factor receptor 2 (Homo sapiens) (P35968 whole entry, the tested form may be a part): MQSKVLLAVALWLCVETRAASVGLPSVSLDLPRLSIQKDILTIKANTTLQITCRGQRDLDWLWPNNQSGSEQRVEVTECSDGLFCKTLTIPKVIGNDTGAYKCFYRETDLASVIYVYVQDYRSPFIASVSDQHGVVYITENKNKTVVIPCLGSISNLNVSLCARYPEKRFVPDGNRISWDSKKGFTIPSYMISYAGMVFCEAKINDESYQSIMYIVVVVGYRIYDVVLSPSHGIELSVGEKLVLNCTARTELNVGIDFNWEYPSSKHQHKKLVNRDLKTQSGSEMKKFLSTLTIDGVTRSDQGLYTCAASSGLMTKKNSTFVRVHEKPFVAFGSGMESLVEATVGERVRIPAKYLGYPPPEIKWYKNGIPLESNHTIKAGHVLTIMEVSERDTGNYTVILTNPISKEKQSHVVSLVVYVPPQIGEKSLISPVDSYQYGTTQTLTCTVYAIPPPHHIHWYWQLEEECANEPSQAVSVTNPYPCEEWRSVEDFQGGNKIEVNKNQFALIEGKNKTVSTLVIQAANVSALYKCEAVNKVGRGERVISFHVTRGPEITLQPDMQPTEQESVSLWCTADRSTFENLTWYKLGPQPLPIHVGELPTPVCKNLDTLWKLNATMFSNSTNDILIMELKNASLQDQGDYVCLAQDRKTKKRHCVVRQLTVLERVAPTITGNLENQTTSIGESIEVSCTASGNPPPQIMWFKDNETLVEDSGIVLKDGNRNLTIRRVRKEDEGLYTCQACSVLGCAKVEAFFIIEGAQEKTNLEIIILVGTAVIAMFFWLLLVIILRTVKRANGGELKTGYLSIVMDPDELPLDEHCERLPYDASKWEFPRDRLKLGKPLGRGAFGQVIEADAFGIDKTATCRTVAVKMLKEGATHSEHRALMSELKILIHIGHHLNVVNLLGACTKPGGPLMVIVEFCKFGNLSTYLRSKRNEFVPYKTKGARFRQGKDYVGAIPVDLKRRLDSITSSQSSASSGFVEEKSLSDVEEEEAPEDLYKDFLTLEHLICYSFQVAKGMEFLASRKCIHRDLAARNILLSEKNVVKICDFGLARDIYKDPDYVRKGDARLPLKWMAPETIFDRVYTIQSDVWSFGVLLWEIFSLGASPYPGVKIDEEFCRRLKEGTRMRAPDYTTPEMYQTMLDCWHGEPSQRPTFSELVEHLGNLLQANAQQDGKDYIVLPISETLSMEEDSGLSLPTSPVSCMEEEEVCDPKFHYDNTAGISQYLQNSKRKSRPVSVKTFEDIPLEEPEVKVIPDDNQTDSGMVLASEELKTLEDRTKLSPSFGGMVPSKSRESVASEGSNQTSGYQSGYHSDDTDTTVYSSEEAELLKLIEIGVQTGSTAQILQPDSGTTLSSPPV

A549 [13] = test: Antimetastatic activity against human A549 cells assessed as reduction in number of cell migration after 72 hrs by crystal violet staining based transwell assay; type: functional
[14] = Metabolic stability in mouse liver microsomes assessed as compound remaining at 1 uM measured up to 1 hr in presence of NADPH by LC-MS/MS analysis; type: ADME, Microsome; conditions: read-out: Stability
CYP2D6 = CYP2D6 (Homo sapiens, UniProt P10635); test: Inhibition of CYP2D6 in human pooled liver microsomes at 10 uM using dextromethorphan as substrate preincubated for 10 mins followed by NADPH addition and measured after 15 mins by LC/MS/MS analysis relative to control; type: ADME; conditions: probe dextromethorphan
[15] = target: Serine/threonine-protein kinase PLK1 (Homo sapiens) (UniProt P53350); test: Inhibition of recombinant full length His-tagged human PLK1 expressed in baculovirus expression system at 0.5 uM using Ser/Thr 16 as substrate in presence of ATP at Km concentration after 1 hr by Z'-LYTE assay relative to control
A549 [16] = test: Induction of apoptosis in human A549 cells assessed as early apoptotic cells at 1 uM after 72 hrs by Annexin V-FITC/propidium iodide staining-based flow cytometric analysis (reference value: 2.40%); type: functional
[17] = Intrinsic clearance in rat liver at 1 uM measured up to 1 hr in presence of NADPH by LC-MS/MS analysis; type: ADME, tissue-based
[18] = target: Tyrosine-protein kinase Lck (Homo sapiens) (UniProt P06239); test: Inhibition of recombinant full length His-tagged human LCK expressed in baculovirus expression system at 0.5 uM using tyr 02 as substrate in presence of ATP at Km concentration after 1 hr by Z'-LYTE assay relative to control
Chain of Tyrosine-protein kinase Lck (Homo sapiens) (P06239 2-509 limits assumed): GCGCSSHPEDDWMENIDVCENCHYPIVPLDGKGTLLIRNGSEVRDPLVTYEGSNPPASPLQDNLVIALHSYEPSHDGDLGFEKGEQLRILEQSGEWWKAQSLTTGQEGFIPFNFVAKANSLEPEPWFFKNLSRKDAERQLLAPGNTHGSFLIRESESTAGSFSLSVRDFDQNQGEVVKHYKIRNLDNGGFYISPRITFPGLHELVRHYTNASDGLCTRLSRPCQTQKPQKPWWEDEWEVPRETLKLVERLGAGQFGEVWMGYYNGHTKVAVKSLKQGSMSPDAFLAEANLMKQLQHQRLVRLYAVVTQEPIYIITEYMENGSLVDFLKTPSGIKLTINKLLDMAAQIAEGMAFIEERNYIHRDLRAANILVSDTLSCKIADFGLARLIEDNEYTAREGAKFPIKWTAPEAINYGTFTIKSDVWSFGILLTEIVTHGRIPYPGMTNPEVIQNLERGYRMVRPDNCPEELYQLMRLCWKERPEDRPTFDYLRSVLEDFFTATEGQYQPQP

CYP3A4 = CYP3A4 (Homo sapiens, UniProt P08684); test: Inhibition of CYP3A4 in human pooled liver microsomes at 10 uM using midazolam as substrate preincubated for 10 mins followed by NADPH addition and measured after 15 mins by LC/MS/MS analysis relative to control; type: ADME; conditions: probe midazolam
A549 [19] = test: Induction of apoptosis in human A549 cells assessed as viable cells at 3 uM after 72 hrs by Annexin V-FITC/propidium iodide staining-based flow cytometric analysis (reference value: 94.66%); type: functional; conditions: A549, 72 h, read-out: Activity
[20] = target: Macrophage colony-stimulating factor 1 receptor (Homo sapiens) (UniProt P07333); test: Inhibition of recombinant His-tagged human CSF1R cytoplasmic domain expressed in baculovirus expression system at 0.5 uM using tyr 01 as substrate in presence of ATP at Km concentration after 1 hr by Z'-LYTE assay relative to control
HK-2 = test: cells; conditions: Homo sapiens, HK-2, 72 h
Description: Cytotoxicity against human HK2 cells assessed as reduction in cell viability after 72 hrs by MTT assay

[21] = target: Proto-oncogene tyrosine-protein kinase receptor Ret (Homo sapiens) (UniProt P07949); test: Inhibition of recombinant GST-tagged human RET (658 to 1114 residues) expressed in baculovirus expression system at 0.5 uM using tyr 02 as substrate in presence of ATP at Km concentration after 1 hr by Z'-LYTE assay relative to control

`COc1cc(C(=O)NC2CCNCC2)ccc1Nc1nc(Nc2ccccc2P(C)(C)=O)c2cc[nH]c2n1` gave an IC50 (MDA-MB-231) of 17.4 µM, an Activity (A549 [1]) of 4.72% and an inhibition at 0.25 h, 10 µM (CYP1A2) of 1.5%. For the same molecule, the inhibition [2] was 12%, the inhibition [3] was 5% and the inhibition [4] was 23%. The inhibition [5] was 6%, the CLH [6] was 11.6 mL/min/kg and the microsomal CLint at 1 µM [7] was 10.1 µL/min/mg. It also gave a remaining at 1 h, 1 µM [8] of 80.7%, a viability at 9 µM (A549 [9]) of 29.1% and an inhibition [10] of 0%. For the same molecule, the inhibition [11] was 98%, the inhibition [12] was 1% and the Activity (A549 [13]) was “Dose-dependent effect”. For the same molecule, the remaining at 1 h, 1 µM [14] was 75.4%, the inhibition at 0.25 h, 10 µM (CYP2D6) was 10.7% and the inhibition [15] was 43%. It also gave an Activity (A549 [16]) of 13.27%, a CLH [17] of under 17.3 mL/min/kg and an inhibition [18] of 14%. The inhibition at 0.25 h, 10 µM (CYP3A4) was 10.5%, the viability at 3 µM (A549 [19]) was 52.9% and the inhibition [20] was 12%. For the same molecule, the IC50 (HK-2) was over 25 µM and the inhibition [21] was 10%.
